We go through 3 molecules from US6313096A, “Inhibitors of trypsin-like enzymes” (Trigen Limited, priority 2000, dated 2001).

In assay [1] the target is T1, thrombin (Homo sapiens, UniProt P00734). The following applies: reversible and irreversible inhibitors of thrombin; cited from earlier work.
For assay [2], the target named is T1, thrombin. Nature of the assay: thrombin time determination. Format: biochemical. The method, then: The activity of the product as a thrombin inhibitor is measured by determination of the thrombin time essentially as described in European Patent Application 293 881, page 51. Using a 1 micromolar concentration of inhibitor, a mean thrombin time of 114 seconds is found, compared with 16 seconds in the absence of inhibitor.

For `NC(N)=NCCC[C@H](NC(=O)[C@@H]1CCCN1C(=O)[C@H](N)Cc1ccccc1)C(=O)CCl` [D-Phe-Pro-Arg-CH2 Cl], at thrombin [1], the inhibition in vitro is ~10^-8 M.

For the molecule `N=C(N)NCCC[C@@H](C=O)NC(=O)[C@@H]1CCCN1C(=O)[C@H](N)Cc1ccccc1` [D-Phe-Pro-Arginal], the inhibition in vitro at thrombin [1] is ~10^-8 M.

Take Z-D-Phe-Pro-BOMe-OPin [formula XII]: the “thrombin inhibitor (in words)” value on thrombin [2] is listed as “strong thrombin inhibitor”. The molecule also yielded a mean thrombin time at thrombin [2] (1 micromolar concentration of inhibitor, 16 seconds in the absence of inhibitor) of 114 s.
